In patent publication US20150225369A1, “DDR2 INHIBITORS FOR THE TREATMENT OF OSTEOARTHRITIS” (Merck Patent GmbH, priority 2012, published 2015):

Target: T1, His-tagged human recombinant DDR-2 kinase domain (His-TEV-DDR2 467-855 aa) (Homo sapiens, UniProt Q16832)
T1 construct: His-TEV-DDR2 467-855 aa
T1 sequence (Q16832 467-855): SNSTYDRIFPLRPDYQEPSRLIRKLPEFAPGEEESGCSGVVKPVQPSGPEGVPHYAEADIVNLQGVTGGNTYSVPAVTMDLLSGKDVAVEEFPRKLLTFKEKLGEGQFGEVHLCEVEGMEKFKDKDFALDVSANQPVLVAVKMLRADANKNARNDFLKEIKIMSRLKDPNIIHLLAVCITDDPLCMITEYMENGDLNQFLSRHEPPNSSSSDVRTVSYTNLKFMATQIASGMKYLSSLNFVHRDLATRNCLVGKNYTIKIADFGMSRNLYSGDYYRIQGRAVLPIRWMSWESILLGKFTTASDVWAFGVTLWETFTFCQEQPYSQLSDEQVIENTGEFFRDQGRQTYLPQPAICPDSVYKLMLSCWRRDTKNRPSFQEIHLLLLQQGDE
Assay: Autophosphorylation assay for biochemical activity testing of DDR2 (HTRF)
Experimental: The autophosphorylation assay was run in two steps: the enzymatic reaction in which His-tagged DDR2 with ATP as co-substrate phosphorylates itself and the detection reaction where a time resolved FRET between XL665® labelled anti-6His antibody bound to the His-tag of the enzyme and cryptate labelled anti-phospho-Tyrosine-antibody (PT66) bound the phosphorylated Tyrosine residue of DDR2 was analysed. The autophosphorylation activity was detectable directly via the increase in HTRF signal.
The autophosphorylation assay was performed as 1536 well or 384 well HTRF® (Cisbio, Codolet, France) assay format in Greiner low volume medium binding 384-well microtiter plates and was used for high throughput screen. […] The ratio of the emission signals was determined. The full value used was the inhibitor-free reaction.

[1] = biochemical DDR2 autophosphorylation
[2] = 4 nM DDR2 kinase domain, 150 μM ATP, 150 min at 22° C.

SMILES	IC50 [1] [µM]	other results
CNC(=O)c1cc(Oc2ccc(CNC(=O)Nc3cccnc3)cc2)ccn1 [compound 88, 4-{4-[(3-Pyridin-3-yl-ureido)-methyl]-phenoxy}-pyridine-2-carboxylic acid methylamide]	15	–
CNC(=O)c1cc(Oc2ccc(CNC(=O)Nc3cc(C)c(Cl)cc3OC)cc2F)ccn1 [compound 218, 4-{4-[3-(4-Chloro-2-methoxy-5-methyl-phenyl)-ureidomethyl]-2-fluoro-phenoxy}-pyridine-2-carboxylic acid methylamide]	0.15	–
CNC(=O)c1cc(Oc2ccc(CNC(=O)Nc3ccc(C)cn3)cc2)ccn1 [compound 12]	–	IC50 [2]: 2 µM
Cc1ccc(NC(=O)NCc2ccc(Oc3ccncc3)cc2)cc1 [compound 18]	4.1	–
CNC(=O)c1cc(Oc2ccc(CNC(=O)Nc3cccnc3OC)cc2)ccn1 [compound 4]	–	IC50 [2]: 1.6 µM
Cc1cc(NC(=O)NCc2ccc(Oc3ccncc3)c(C)c2)c(OCCN(C)C)cc1Cl [compound 246, 1-[4-Chloro-2-(2-dimethylamino-ethoxy)-5-methyl-phenyl]-3-[3-methyl-4-(pyridin-4-yloxy)-benzyl]-urea]	0.23	–
CNC(=O)c1cc(Oc2ccc(CNC(=O)Nc3cc(C)c(Cl)cc3OCCN3CCNCC3)cc2)ccn1 [compound 120, 4-(4-{3-[4-Chloro-5-methyl-2-(2-piperazin-1-yl-ethoxy)-phenyl]-ureidomethyl}-phenoxy)-pyridine-2-carboxylic acid methylamide]	0.176	–
Cc1cc(C)cc(NC(=O)NCc2ccc(Oc3ccncc3)cc2)c1 [compound 44, 1-(3,5-Dimethyl-phenyl)-3-[4-(pyridin-4-yloxy)-benzyl]-urea]	1.8	–
Cc1cc(Oc2ccc(CNC(=O)Nc3cc4ccccc4cn3)cc2C)ccn1 [compound 34]	–	IC50 [2]: 11 µM
O=C(NCc1ccc(Oc2ccncc2)cc1)Nc1cc(Cl)ccc1Cl [compound 10]	0.27	–
CNC(=O)c1cc(Oc2ccc(OCC(=O)Nc3cc(C(F)(F)F)cn(C)c3=O)cc2)ccn1 [compound 4]	–	IC50 (Table 6, 4 nM DDR2 kinase domain, 150 μM ATP): 0.57 µM
O=C(Nc1ccc(Cl)c(C(F)(F)F)c1)NC1(c2ccc(Oc3ccncc3)cc2)CC1 [compound 68, 1-(4-Chloro-3-trifluoromethyl-phenyl)-3-{1-[4-(pyridin-4-yloxy)-phenyl]-cyclopropyl}-urea]	4.6	–
CNC(=O)c1cc(Oc2ccc(CNC(=O)Nc3cc(Cl)c(C)cc3OC)cc2F)ccn1 [compound 216, 4-{4-[3-(5-Chloro-2-methoxy-4-methyl-phenyl)-ureidomethyl]-2-fluoro-phenoxy}-pyridine-2-carboxylic acid methylamide]	0.043	–
CCc1ccc(NC(=O)NCc2ccc(Oc3ccncc3)cc2)cc1 [compound 52, 1-(4-Ethyl-phenyl)-3-[4-(pyridin-4-yloxy)-benzyl]-urea]	9.9	–
CSc1cccc(NC(=O)NCc2ccc(Oc3ccncc3)cc2)c1 [compound 34]	5.5	–
CNC(=O)c1cc(Oc2ccc(CNC(=O)Nc3cc(C(F)(F)F)cn(Cc4ccccc4)c3=O)cc2)ccn1 [compound 12]	–	IC50 [2]: 0.26 µM
O=C(NCc1ccc(Oc2ccncc2)cc1)Nc1ccccc1Cl [compound 33]	≥ 100	–
CNC(=O)c1cc(Oc2ccc(CNC(=O)Nc3cc(C)c(Cl)cc3OC)cc2C)ccn1 [compound 119, 4-{4-[3-(4-Chloro-2-methoxy-5-methyl-phenyl)-ureidomethyl]-2-methyl-phenoxy}-pyridine-2-carboxylic acid methylamide]	0.21	–
O=C(NCc1ccc(Oc2ccncc2)cc1)Nc1cccc(Br)c1 [compound 53, 1-(3-Bromo-phenyl)-3-[4-(pyridin-4-yloxy)-benzyl]-urea]	0.056	–
CCOc1ccc(NC(=O)NCc2ccc(Oc3ccncc3)cc2)cc1 [compound 41, 1-(4-Ethoxy-phenyl)-3-[4-(pyridin-4-yloxy)-benzyl]-urea]	≥ 100	–
CC(C)(C)c1ccc(NC(=O)NCc2ccc(Oc3ccncc3)cc2)cc1 [compound 56, 1-(4-tert-Butyl-phenyl)-3-[4-(pyridin-4-yloxy)-benzyl]-urea]	16	–
Cc1ccc(C)c(NC(=O)NCc2ccc(Oc3ccncc3)cc2)c1 [compound 25]	13	–
COc1cc(Cl)c(C)cc1NC(=O)NCc1ccc(Oc2ccnc3cc(C)oc23)c(C)c1 [compound 252, 1-(4-Chloro-2-methoxy-5-methyl-phenyl)-3-[3-methyl-4-(2-methyl-furo[3,2-b]pyridin-7-yloxy)-benzyl]-urea]	0.75	–

The next lines start with results.

IC50 [1] [µM]	SMILES	other results
0.03	CCN(CC)CCOc1ccc(C(F)(F)F)cc1NC(=O)NCc1ccc(Oc2ccnc(C(=O)NC)c2)cc1 [compound 108, 4-(4-{3-[2-(2-Diethylamino-ethoxy)-5-trifluoromethyl-phenyl]-ureidomethyl}-phenoxy)-pyridine-2-carboxylic acid methylamide]	–
0.084	CCOc1ccc(C(F)(F)F)cc1NC(=O)NCc1ccc(Oc2ccnc(C(=O)NC)c2)c(C)c1 [compound 229, 4-{4-[3-(2-Ethoxy-5-trifluoromethyl-phenyl)-ureidomethyl]-2-methyl-phenoxy}-pyridine-2-carboxylic acid methylamide]	–
0.13	CNC(=O)c1cc(Oc2ccc(CNC(=O)Nc3cc(C(F)(F)F)ccc3OCCOC)cc2C)ccn1 [compound 168, 4-(4-{3-[2-(2-Methoxy-ethoxy)-5-trifluoromethyl-phenyl]-ureidomethyl}-2-methyl-phenoxy)-pyridine-2-carboxylic acid methylamide]	–
1.6	CNC(=O)c1cc(Oc2ccc(CNC(=O)Nc3cccnc3OC)cc2)ccn1 [compound 87, 4-{4-[3-(2-Methoxy-pyridin-3-yl)-ureidomethyl]-phenoxy}-pyridine-2-carboxylic acid methylamide]	–
0.66	CNC(=O)c1cc(Oc2ccc(CNC(=O)Nc3cc(C)c(Cl)cc3OCCNC(=O)C(F)(F)F)cc2)ccn1 [compound 187, 4-[4-(3-{4-Chloro-5-methyl-2-[2-(2,2,2-trifluoro-acetylamino)-ethoxy]-phenyl}-ureidomethyl)-phenoxy]-pyridine-2-carboxylic acid methylamide]	–
0.15	CNC(=O)c1cc(Oc2ccc(C(C)NC(=O)Nc3cc(C(F)(F)F)ccc3OC)cc2)ccn1 (stereo not shown) [compound 69, 4-(4-{1-[3-(2-Methoxy-5-trifluoromethyl-phenyl)-ureido]-ethyl}-phenoxy)-pyridine-2-carboxylic acid methylamide]	–
0.25	CNC(=O)c1cc(Oc2ccc(CNC(=O)Nc3cc(C(F)(F)F)c(Cl)cc3OCCN3CCCC3)cc2)ccn1 [compound 129, 4-(4-{3-[4-Chloro-2-(2-pyrrolidin-1-yl-ethoxy)-5-trifluoromethyl-phenyl]-ureidomethyl}-phenoxy)-pyridine-2-carboxylic acid methylamide]	–
0.18	CNC(=O)c1cc(Oc2ccc(CNC(=O)Nc3cc(C(F)(F)F)ccc3OC)c(C)c2)ccn1 [compound 105, 4-{4-[3-(2-Methoxy-5-trifluoromethyl-phenyl)-ureidomethyl]-3-methyl-phenoxy}-pyridine-2-carboxylic acid methylamide]	–
0.14	CNC(=O)c1cc(Oc2ccc(CNC(=O)Nc3cc(C(F)(F)F)ccc3OCCOC)cc2)ccn1 [compound 166, 4-(4-{3-[2-(2-Methoxy-ethoxy)-5-trifluoromethyl-phenyl]-ureidomethyl}-phenoxy)-pyridine-2-carboxylic acid methylamide]	–
0.05	CNC(=O)c1cc(Oc2ccc(CNC(=O)Nc3cc(C(F)(F)F)ccc3OC)cc2C)ccn1 [compound 102, 4-{4-[3-(2-Methoxy-5-trifluoromethyl-phenyl)-ureidomethyl]-2-methyl-phenoxy}-pyridine-2-carboxylic acid methylamide]	–
4.9	CNC(=O)c1cc(Oc2ccc(CNC(=O)Nc3ccccc3)cc2)ccn1 [compound 181, 4-{4-[(3-Phenyl-ureido)-methyl]-phenoxy}-pyridine-2-carboxylic acid methylamide]	–
0.038	CNC(=O)c1cc(Oc2ccc(CNC(=O)Nc3cc(C(F)(F)F)ccc3OCC(=O)OC)cc2)ccn1 [compound 92, (2-{3-[4-(2-Methylcarbamoyl-pyridin-4-yloxy)-benzyl]-ureido}-4-trifluoromethyl-phenoxy)-acetic acid methyl ester]	–
3.3	CNC(=O)c1cc(Oc2ccc(CNC(=O)Nc3cc(C(F)(F)F)c(Cl)cc3OCC(=O)O)cc2)ccn1 [compound 98, (5-Chloro-2-{3-[4-(2-methylcarbamoyl-pyridin-4-yloxy)-benzyl]-ureido}-4-trifluoromethyl-phenoxy)-acetic acid]	–
0.022	CNC(=O)c1cc(Oc2ccc(CNC(=O)Nc3cc(C(F)(F)F)c(Cl)cc3OCC(=O)OC(C)(C)C)cc2)ccn1 [compound 107, (5-Chloro-2-{3-[4-(2-methylcarbamoyl-pyridin-4-yloxy)-benzyl]-ureido}-4-trifluoromethyl-phenoxy)-acetic acid tert-butyl ester]	–
